Tested on: subjects with moderate-to-severe plaque psoriasis
Assay: Safety, adverse events, Example 2 through Week 56
Type: in vivo, human
From the text: The LTE safety analysis was based on randomized participants in Example who entered the present long-term extension study and received at least one dose of study intervention (including a partial dose) during the study period.

[1] = Placebo → 100 mg QD after crossover, through Week 56
[2] = Placebo → 100 mg QD, Week 16 through Week 56
[3] = Placebo → 100 mg QD, LTE Safety analysis set

CC(=O)NCCCC[C@@H]1NC(=O)[C@H](Cc2c[nH]c3c(C)cccc23)NC(=O)[C@H]([C@@H](C)O)NC(=O)[C@H](CC(N)=O)NC(=O)[C@@H](NC(C)=O)C(C)(C)SSC(C)(C)[C@@H](C(=O)N[C@@H](Cc2ccc(OCCN)cc2)C(=O)N[C@@H](Cc2ccc3ccccc3c2)C(=O)NC2(C(=O)N[C@@H](CCC(=O)O)C(=O)N[C@@H](CC(N)=O)C(=O)N[C@@H](Cc3cccnc3)C(=O)N(C)CC(N)=O)CCOCC2)NC1=O [IL-23 receptor antagonist peptide, Ac-[Pen]*-N-T-[W(7-Me)]-[Lys(Ac)]-[Pen]*-Phe[4-(2-aminoethoxy)]-[2-Nal]-[THP]-E-N-[3-Pal]-Sarc-NH2 (*[Pen]-[Pen]* formdisulfidebond)]
(2.9%): Subjects with treatment-emergent AE: Hepatobiliary disorders (%) [2] | Subjects with treatment-emergent AE: Hypertransaminasemia (%) [2] | Subjects with treatment-emergent AE: Ocular cyst (%) [2] | Subjects with treatment-emergent AE: Retinal vein occlusion (%) [2]
(5.7%): Subjects with treatment-emergent AE: Eye disorders (%) [2]
7: Vascular disorders: number of subjects (Combined, through Week 56)
(0.8%): Skin papilloma: % of subjects (Combined, through Week 56) | Vertigo: % of subjects (Combined, through Week 56)
0: Subjects with 1 or more treatment-emergent adverse events leading to discontinuation of study agent [1] | Subjects with AE leading to discontinuation: Abdominal discomfort [1] | Subjects with AE leading to discontinuation: Abdominal pain [1] | Subjects with AE leading to discontinuation: Alanine aminotransferase increased [1] | Subjects with AE leading to discontinuation: Aspartate aminotransferase increased [1] | Subjects with AE leading to discontinuation: Asthenia [1] | Subjects with AE leading to discontinuation: Chills [1] | Subjects with AE leading to discontinuation: Ear and labyrinth disorders [1] | Subjects with AE leading to discontinuation: Gamma-glutamyltransferase increased [1] | Subjects with AE leading to discontinuation: Gastrointestinal disorders [1] | Subjects with AE leading to discontinuation: General disorders and administration site conditions [1] | Subjects with AE leading to discontinuation: Headache [1] | Subjects with AE leading to discontinuation: Insomnia [1] | Subjects with AE leading to discontinuation: Investigations [1] | Subjects with AE leading to discontinuation: Nausea [1] | Subjects with AE leading to discontinuation: Nervous system disorders [1] | Subjects with AE leading to discontinuation: Proctalgia [1] | Subjects with AE leading to discontinuation: Psoriasis [1] | Subjects with AE leading to discontinuation: Psychiatric disorders [1] | Subjects with AE leading to discontinuation: Skin and subcutaneous tissue disorders [1] | Subjects with AE leading to discontinuation: Suicide attempt [1] | Subjects with AE leading to discontinuation: Transaminases increased [1] | Subjects with AE leading to discontinuation: Vertigo [1] | Subjects with AE leading to discontinuation: Vomiting [1] | Subjects with AE leading to discontinuation: Weight increased [1] | Subjects with treatment-emergent AE: Cough [1] | Subjects with treatment-emergent AE: Headache [1] | Subjects with treatment-emergent serious AE: COVID-19 [1] | Subjects with treatment-emergent serious AE: Cardiac disorders [1] | Subjects with treatment-emergent serious AE: Coronary artery disease [1] | Subjects with treatment-emergent serious AE: Diverticulitis [1] | Subjects with treatment-emergent serious AE: Foot deformity [1] | Subjects with treatment-emergent serious AE: General disorders and administration site conditions [1] | Subjects with treatment-emergent serious AE: Infected cyst [1] | Subjects with treatment-emergent serious AE: Infections and infestations [1] | Subjects with treatment-emergent serious AE: Injury, poisoning and procedural complications [1] | Subjects with treatment-emergent serious AE: Intervertebral disc protrusion [1] | Subjects with treatment-emergent serious AE: Ligament injury [1] | Subjects with treatment-emergent serious AE: Musculoskeletal and connective tissue disorders [1] | Subjects with treatment-emergent serious AE: Neoplasms benign, malignant and unspecified (incl cysts and polyps) [1] | Subjects with treatment-emergent serious AE: Non-cardiac chest pain [1] | Subjects with treatment-emergent serious AE: Psychiatric disorders [1] | Subjects with treatment-emergent serious AE: Respiratory, thoracic and mediastinal disorders [1] | Subjects with treatment-emergent serious AE: Suicide attempt [1] | Subjects with treatment-emergent serious AE: Tonsillar hypertrophy [1] | Subjects with treatment-emergent serious AE: Uterine leiomyoma [1] | Subjects with treatment-emergent serious AE: Ventricular dysfunction [1] | Number of subjects with treatment-emergent AE: Cholelithiasis [2] | Number of subjects with treatment-emergent AE: Ear and labyrinth disorders [2] | Number of subjects with treatment-emergent AE: Endocrine disorders [2] | Number of subjects with treatment-emergent AE: Eyelid skin dryness [2] | Number of subjects with treatment-emergent AE: Goiter [2] | Number of subjects with treatment-emergent AE: Immune system disorders [2] | Number of subjects with treatment-emergent AE: Insomnia [2] | Number of subjects with treatment-emergent AE: Psychiatric disorders [2] | Number of subjects with treatment-emergent AE: Seasonal allergy [2] | Number of subjects with treatment-emergent AE: Vertigo [2] | Subjects who discontinued study agent because of 1 or more adverse events [3] | Subjects with 1 or more Serious Infections and infestations [3] | Subjects with adverse event: Headache [3] | Subjects with adverse event: Meniscus injury [3] | Subjects with adverse event: Sinusitis [3] | Subjects with adverse event: Vomiting [3] | Subjects with serious adverse event: Coronary artery disease [3] | Subjects with serious adverse event: Diverticulitis [3] | Subjects with serious adverse event: Foot deformity [3] | Subjects with serious adverse event: Intervertebral disc protrusion [3] | Subjects with serious adverse event: Ligament injury [3] | Subjects with serious adverse event: Non-cardiac chest pain [3] | Subjects with serious adverse event: Tonsillar hypertrophy [3] | Subjects with serious adverse event: Uterine leiomyoma [3]
9: Subjects with treatment-emergent AE: Nasopharyngitis [1] | Subjects with adverse event: Nasopharyngitis [3]
no deaths: Deaths (LTE study period)
2: Seasonal allergy: number of subjects (Combined, through Week 56) | Skin papilloma: number of subjects (Combined, through Week 56) | Vertigo: number of subjects (Combined, through Week 56) | Number of subjects with treatment-emergent AE: Eye disorders [2]
1: Skin laceration: number of subjects (Combined, through Week 56) | Social circumstances: number of subjects (Combined, through Week 56) | Steatohepatitis: number of subjects (Combined, through Week 56) | Suicide attempt: number of subjects (Combined, through Week 56) | Sunburn: number of subjects (Combined, through Week 56) | Thrombocytopenia: number of subjects (Combined, through Week 56) | Thrombocytosis: number of subjects (Combined, through Week 56) | Tonsillar hypertrophy: number of subjects (Combined, through Week 56) | Tooth fracture: number of subjects (Combined, through Week 56) | Type 2 diabetes mellitus: number of subjects (Combined, through Week 56) | Urinary tract disorder: number of subjects (Combined, through Week 56) | Uterine leiomyoma: number of subjects (Combined, through Week 56) | Ventricular dysfunction: number of subjects (Combined, through Week 56) | Vitamin D deficiency: number of subjects (Combined, through Week 56) | Number of subjects with treatment-emergent AE: Hepatobiliary disorders [2] | Number of subjects with treatment-emergent AE: Hypertransaminasemia [2] | Number of subjects with treatment-emergent AE: Ocular cyst [2] | Number of subjects with treatment-emergent AE: Retinal vein occlusion [2]
(6.5%): Skin and subcutaneous tissue disorders: % of subjects (Combined, through Week 56)
(0.4%): Skin laceration: % of subjects (Combined, through Week 56) | Social circumstances: % of subjects (Combined, through Week 56) | Steatohepatitis: % of subjects (Combined, through Week 56) | Suicide attempt: % of subjects (Combined, through Week 56) | Sunburn: % of subjects (Combined, through Week 56) | Thrombocytopenia: % of subjects (Combined, through Week 56) | Thrombocytosis: % of subjects (Combined, through Week 56) | Tonsillar hypertrophy: % of subjects (Combined, through Week 56) | Tooth fracture: % of subjects (Combined, through Week 56) | Type 2 diabetes mellitus: % of subjects (Combined, through Week 56) | Urinary tract disorder: % of subjects (Combined, through Week 56) | Uterine leiomyoma: % of subjects (Combined, through Week 56) | Ventricular dysfunction: % of subjects (Combined, through Week 56) | Vitamin D deficiency: % of subjects (Combined, through Week 56)
(2.8%): Vascular disorders: % of subjects (Combined, through Week 56)
16: Skin and subcutaneous tissue disorders: number of subjects (Combined, through Week 56)

— US20260232767A1, “INTERLEUKIN-23 RECEPTOR ANTAGONIST PEPTIDES FOR USE IN THE TREATMENT OF PSORIASIS” (Janssen Pharmaceutica NV, priority 2023, published 2026)
